Reference: patent publication US20040097408A1, “Compounds regulating cell proliferation and differentiation” (priority 2001, published 2004)

What was measured:
[1] = level of F16 in serum of mice by fluorescence; assay type: in vivo, mouse; settings: 12.5 or 25 mg/kg intraperitoneally
Procedure: To determine the levels of F16 present in the blood of mice after injection of F16, two mice were injected intraperitoneally with 25 mg/kg F16 and two mice were injected intraperitoneally with 12.5 mg/kg of F16. […] 40-50 μL of blood was obtained from the tail vein of the mice and placed into tubes incubated in ice and containing Heparin to a final concentration of 20U/mL of blood. Samples were centrifuged at 6,000 rpm for 3 minutes in the cold room. Serum was transfered to a clean tube and stored at −70° C. until further processing. 2 μL of serum samples were spotted onto Whatman paper, alongside with dilutions of F16 as a standard. Since F16 is a fluorescent compound (see below), the presence of F16 was deteremined by measuring its fluorescence emission using the Storm 860 (Molecular Dynamics). The concentration of F16 in serum samples was estimated by visual comparison to the intensity of the standard.

[2] = test system: EpH4-EV and EpH4-A6 cells; assay: superoxide levels by dihydroethidium flow cytometry; assay type: cell-based, mouse; settings: 3 μM F16, FIG. 11
Text: Besides ATP synthesis, the mitochondria plays different roles in cell physiology, among them control of the redox state of cells. Changes in the level of superoxide anion as an indicator of alterations in reactive oxygen intermediates generation by mitochondria of cells treated with F16 was examined by flow cytometry. Changes in the levels of intracellular oxidants were investigated using the fluorescent probe dihydroethidium (DHE) (Molecular Probes). Superoxide anion can oxidate DHE to ethidium bromide (EtBr) which binds to DNA. […] EpH4-EV and EpH4-A6 cells were grown in the absence or in the presence of 3 μM F16 for 15, 24, 48 and 72 hr. cells were resuspended and diluted to 10^6 cells/mL. DHE was added to the cell suspension to a final 2 μM in each case. Cells were incubated at 37° C. for 15 min and immediately analysed using flow cytometry.

[3] = test system: Neu, PKB/Akt and MAP kinase in EpH4-A6 cells; assay: Western blot of Neu-dependent signaling; assay type: cell-based, mouse; settings: 3 μM F16, FIG. 12
Procedure: In parallel to the characterization of the effect of F16 on mitochondria homeostasis the effect of F16 on cell signaling was investigated. Control and Neu-overexpressing EpH4-A6 cells were left untreated or treated with 3 μM F16 for 24 and 48 hr. Whole cell lysates were prepared as described above. Samples were immnoblotted with antibodies against Neu, PKB, MAPK, as well as antibodies that react with the phosphorylated forms of the proteins, as described above. Samples were probed with anti-β-actin as loading control, also as described above.

[4] = test system: BT474; assay: cell count proliferation assay; assay type: cell-based; parameters: key: +: A positive scoring in these Tables represent cells in which a 2-5 and a 10-40 fold reduction in the total number of cells relative to the control untreated cells was observed after 3 and 7 days of culture with F16, respectively; settings: BT474, human breast; F16 3 μM, cells counted after 3 and 7 days
[5] = test system: EpH4-A6 cells; assay: anti-BrdU cytoblot assay (BrdU incorporation); assay type: cell-based, mouse
Procedure: In order to look for selective inhibitors of cell proliferation dependent on Neu, a chemical library was screened using a cytoblot assay. The ability of small molecules to inhibit cell proliferation at a final concentration of […] determined by the relative incorporation of BrdU into DNA in EpH4-A6 Neu-overexpressing and EpH4-EV control cells.
A modified version of a protocol previously described was used for the cytoblot assay (Stockwell et al. (1999) Chem Biol 6(2), 71-83). Briefly, for this cytoblot assay, 2,000 control (EpH4-EV) and Neu overexpressing (EpH4-A6) cells were seeded in 40 μL of growing medium in duplicate in each well of a white […] plate (Costar). 16,000 compounds from a chemical library (Chembridge) were transferred to each well to a final concentration of 10-15 μM. Plates were incubated at 37° C. with 5% CO2 for 36 hours. BrdU was then added to a final concentration of 20 μM and the cells were incubated at 37° C. with 5% CO2 for an additional 3 hours. Cells were then washed with PBS and fixed with 75% ethanol/25%TBS at 4° C. for 1 hour. DNA denaturation was achieved by incubation with 2M HCl/0.5% Tween-20 for 20 min, followed by neutralization with 2M NaOH in Hank's Balanced Salt Solution (HBSS). Cells were subsequently washed with HBSS, blocked with PBS/0.3% Tween-20/1% BSA (PSTB), and incubated with 0.5 μg/mL of mouse anti-BrdU antibody (PharMingen) and 1:5,000 dilution of anti-mouse IgG coupled to HRP in PBSTB for 1 hour at room temperature. Finally the cells were washed with PBS and 20 μL of 1:1 mix of the enhanced chemiluminescence reagent (Pierce) was then added to each well of a plate. In every case addition of reagents was done using a mutli-drop 384 liquid dispenser (Labsystems) and the washes using a plate washer (Bio-Tek Instruments). Chemiluminescent signal from each plate was detected by autoradiograph and multilabel counter Victor^2 (Wallac) in order to quantitate results. A control cytoblot using inhibitory anti-Neu monoclonal antibodies was performed following the same procedure with the exception that anti-Neu antibody was added to the medium at a final concentration of 20 μg/mL.
The potency of these 55 small molecules was then evaluated at lower concentrations, i.e., at 10 μM and 1 μM using the cytoblot assay described above. […] These six compounds are referred to as E20 (ID 141525); F12 (ID 120590); F16 (ID 274873); H10 (ID 120670); J6 (ID 120856); N12 (ID 215015), and their structure is shown in FIGS. 2 A-F, respectively. […] These two compounds are referred to as L4 (ID 121113); B15(ID217496) […]. FIGS. 2 A-H also show proton NMR spectra of each of the molecules that confirmed their identity. […]

[6] = total body weight of mice during treatment; assay type: in vivo, mouse; settings: relative to weight at the beginning of the experiment; 20 mg/kg twice a day
Text: The total weight of the mice was also monitored every other day during the course of the treatment with F16.

[7] = test system: mice; assay: tolerability of intraperitoneal F16 in mice

C[n+]1ccc(/C=C/c2c[nH]c3ccccc23)cc1.[I-] [F16]
F16 in blood 20 hours after the injection [1]: not detected | time of the maximum level of F16 in the blood ([1]; FIG. 7): 1 to 3 h | level of F16 in the blood at 7 hours after the injection ([1]; compared to standard): nanomolar range | maximum level of F16 in the blood ([1]; compared to standard): micromolar range | superoxide level (ethidium/DNA fluorescence) [2]: increase in the ethidium/DNA fluorescence | phosphotyrosine content of Neu, phosphorylated PKB/Akt, and phosphorylated MAP kinase [3]: decreased | F16 response [4]: + | score in anti-BrdU cytoblot ([5]; EpH4-A6 cells at 10 μM): positive | concentration up to which anti-proliferative activity is retained ([5]; EpH4-A6 cells, concentrations from 100 to 0.01 μM, FIG. 3): 100 nM | concentration at which F16 is effective / partially inhibits BrdU incorporation (as low as) ([5]; EpH4-A6 cells, cytoblot): 10 nM | concentration at which anti-proliferative activity was shown (as low as) ([5]; EpH4-A6 cells, cytoblot): 1 µM | average total body weight loss [6]: 3.3% | deaths after injection ([7]; 50 mg/kg, a few hours after the injection): one mouse out of 5 | maximum tolerable dose (MTD) ([7]; intraperitoneal injection, mice): ~50 mg/kg
